Counter-ions that a name gives are not always drawn.
Target: T1, hTRPM8 (Homo sapiens, UniProt Q7Z2W7)
T1 construct: expressed in transfected cells
Assay: Assay on TRPM8 modulators: calcium imaging (Fluo-4, Flexstation) in HEK293 cell line stably expressing hTRPM8
Assay type: cell-based
Settings: TRPM8 agonist activity, calcium influx, HEK293 stably expressing hTRPM8, sigmoidal dose-response fit
Description: A HEK293 cell line stably expressing hTRPM8 was generated according to Klein et al., (Chem. Senses 36: 649-658, 2011) and receptor activation was monitored by calcium imaging in a Flexstation. For Ca-imaging assays of TRPM8 channel activation, cells were seeded on day 0 at a density of 12000 cells per well in Dulbecco's modified Eagle medium (DMEM) containing 9% foetal bovine serum in black, clear bottom 96-well plates that had been coated with 0.001% polyethyleneimine (molecular weight=60 000, Acros Organics). On day 2, agonists were evaluated via calcium imaging using Fluo-4. Briefly, growth medium was discarded, and the cells were incubated in the dark for 1 h at 37° C. in 50 μL loading buffer consisting of 2.7 μM Fluo-4 AM (Invitrogen) and […] probenecid (Sigma-Aldrich) in DMEM (without serum). After incubation, the plates were washed five times with 100 μL of assay buffer (in mM: 130 NaCl, 5 KCl, 10 HEPES, 2 CaCl2, and 10 glucose, pH7.4.) and further incubated in the dark at room temperature for 30 min. The cells were then washed five times with 100 μL assay buffer and then calcium influx to serial dilutions of inventive compounds were measured in a Flexstation 3 (Molecular Devices). Receptor activation was initiated following addition of 20 μl of a 10-fold concentrated ligand stock solution, which is also prepared in assay buffer. Fluorescence was continuously monitored for 15 seconds prior to ligand addition and for 105 seconds after ligand addition, for a total of 120 seconds. Maximal receptor activation in relation to solvent control and relative to 31.6 μM menthol is determined. Data from serial dilutions were processed with a KNIME workflow to fit a sigmoidal dose-response curve and to extrapolate EC50 values.

T1 sequence (Q7Z2W7 whole entry): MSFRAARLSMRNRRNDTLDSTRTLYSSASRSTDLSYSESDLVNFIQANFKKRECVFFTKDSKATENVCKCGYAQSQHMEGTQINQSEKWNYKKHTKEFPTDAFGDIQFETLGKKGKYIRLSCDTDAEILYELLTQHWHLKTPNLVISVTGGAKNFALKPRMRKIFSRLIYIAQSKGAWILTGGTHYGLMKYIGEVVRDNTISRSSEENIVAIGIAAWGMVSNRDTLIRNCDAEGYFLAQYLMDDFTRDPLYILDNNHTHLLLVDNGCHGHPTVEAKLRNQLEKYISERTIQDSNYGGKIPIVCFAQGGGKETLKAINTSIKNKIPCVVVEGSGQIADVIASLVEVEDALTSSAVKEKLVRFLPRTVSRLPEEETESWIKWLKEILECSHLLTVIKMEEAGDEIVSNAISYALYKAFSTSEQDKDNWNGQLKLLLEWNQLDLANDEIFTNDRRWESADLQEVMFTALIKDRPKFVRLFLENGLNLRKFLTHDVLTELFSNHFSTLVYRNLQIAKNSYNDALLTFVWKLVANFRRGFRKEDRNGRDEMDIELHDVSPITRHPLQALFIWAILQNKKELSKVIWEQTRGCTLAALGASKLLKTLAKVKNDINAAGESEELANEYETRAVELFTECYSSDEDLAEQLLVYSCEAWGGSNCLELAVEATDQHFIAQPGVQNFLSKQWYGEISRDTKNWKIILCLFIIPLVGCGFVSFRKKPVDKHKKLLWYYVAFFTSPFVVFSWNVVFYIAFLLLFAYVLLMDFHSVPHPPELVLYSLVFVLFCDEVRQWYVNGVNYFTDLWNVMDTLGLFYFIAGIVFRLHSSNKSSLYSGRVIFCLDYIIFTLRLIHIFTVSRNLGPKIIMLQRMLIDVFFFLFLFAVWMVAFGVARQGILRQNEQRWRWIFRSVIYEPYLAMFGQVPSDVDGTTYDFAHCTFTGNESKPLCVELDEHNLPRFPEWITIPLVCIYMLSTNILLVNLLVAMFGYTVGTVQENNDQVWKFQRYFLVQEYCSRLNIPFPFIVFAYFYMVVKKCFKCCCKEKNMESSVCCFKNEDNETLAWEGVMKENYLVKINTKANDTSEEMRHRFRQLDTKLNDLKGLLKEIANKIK

SMILES	EC50 [nM]
Cc1ccc(OCCN2CCOCC2)c(Cc2c(F)cccc2F)c1 [compound 151, 4-(2-(2-(2,6-difluorobenzyl)-4-methylphenoxy)ethyl)morpholine]	50 to 300
Cc1cc(C)c(OCCN2CCN(C)CC2)cc1Cc1ccccc1C#N [compound 109, 2-(2,4-dimethyl-5-(2-(4-methylpiperazin-1-yl)ethoxy)benzyl)benzonitrile]	1000 to 35000
Cc1cc(C)c(CCCN2CCOCC2)c(Oc2ccccc2F)c1 [compound 162, 4-(3-(2-(2-fluorophenoxy)-4,6-dimethylphenyl)propyl)morpholine]	< 50
Cc1ccc(N(C)CCN2CCOCC2)c(Cc2c(F)cccc2F)c1 [compound 112, 2-(2,6-difluorobenzyl)-N,4-dimethyl-N-(2-morpholinoethyl)aniline]	< 50
Cc1cc(C)c(OC(C)CN2CCN(C)CC2)c(Cc2ccccc2C#N)c1 (stereo not shown) [compound 116, 2-(3,5-dimethyl-2-((1-(4-methylpiperazin-1-yl)propan-2-yl)oxy)benzyl)benzonitrile hydrochloride]	50 to 300
Cc1cc(C)c(OCCN2CCOCC2)c(Cc2ccc(F)cc2F)c1 [compound 146, 4-(2-(2-(2,4-difluorobenzyl)-4,6-dimethylphenoxy)ethyl)morpholine]	300 to 1000
Cc1cc(C)c(OCCN2CCOCC2)c(Cc2c(Cl)cccc2C#N)c1 [compound 142, 3-chloro-2-(3,5-dimethyl-2-(2-morpholinoethoxy)benzyl)benzonitrile]	300 to 1000
Cc1cc(C)c(N(C)CCN2CCOCC2)c(Cc2c(F)cccc2F)c1 [compound 111, 2-(2,6-difluorobenzyl)-N,4,6-trimethyl-N-(2-morpholinoethyl)aniline]	300 to 1000
Cc1ccc(OCCN2CCOCC2)c(CC2CCCCC2=O)c1 (stereo not shown) [compound 131, 2-(5-methyl-2-(2-morpholinoethoxy)benzyl)cyclohexan-1-one]	1000 to 35000
Cc1cc(C)c(OCCN2CCOCC2)c(Cc2ccccc2N)c1 [compound 121, 2-(3,5-dimethyl-2-(2-morpholinoethoxy)benzyl)aniline]	1000 to 35000
Cc1ccc(N(C)CCN2CCOCC2)c(Cc2ccccc2F)c1 [compound 114, 2-(2-fluorobenzyl)-N,4-dimethyl-N-(2-morpholinoethyl)aniline]	50 to 300
Cc1cc(C)c(OCCN2CCOCC2)c(Cc2c(Cl)cccc2Cl)c1 [compound 148, 4-(2-(2-(2,6-dichlorobenzyl)-4,6-dimethylphenoxy)ethyl)morpholine]	300 to 1000
Cc1cc(C)c(OC(C)CO)c(Cc2ccccc2C#N)c1 (stereo not shown) [compound 106, 2-(2-((1-hydroxypropan-2-yl)oxy)-3,5-dimethylbenzyl)benzonitrile]	300 to 1000
Cc1cccc(Cc2ccccc2)c1OCCN1CCN(C)CC1 [compound 92, 1-(2-(2-benzyl-6-methylphenoxy)ethyl)-4-methylpiperazine]	1000 to 35000
Cc1cc(C)c(OCCN2CCOCC2)c(Cc2ccccc2[N+](=O)[O-])c1 [compound 157, 4-(2-(2,4-dimethyl-6-(2-nitrobenzyl)phenoxy)ethyl)morpholine]	300 to 1000
Cc1ccc(OCCCN2CCN(C)CC2)c(Cc2ccccc2)c1 [compound 99, 1-(3-(2-benzyl-4-methylphenoxy)propyl)-4-methylpiperazine hydrochloride]	1000 to 35000
Cc1ccc(OCC(C)N2CCOCC2)c(Cc2ccccc2C#N)c1 (stereo not shown) [compound 132, 2-(5-methyl-2-(2-morpholinopropoxy)benzyl)benzonitrile]	300 to 1000
Cc1ccc(OCCN2CCN(C)CC2)c(Cc2ccc(Cl)cc2)c1 [compound 60, 1-(2-(2-(4-chlorobenzyl)-4-methylphenoxy)ethyl)-4-methylpiperazine hydrochloride]	1000 to 35000
Cc1cc(C)c(OCCN2CCN(C)CC2)c(Cc2ccccc2)c1 [compound 70, 1-(2-(2-benzyl-4,6-dimethylphenoxy)ethyl)-4-methylpiperazine]	300 to 1000
Cc1ccc(OCCN2CCN(C)CC2)c(/C=C2\CCCCC2=O)c1 [compound 46, (E)-2-(5-methyl-2-(2-(4-methylpiperazin-1-yl)ethoxy)benzylidene)cyclohexan-1-one]	300 to 1000
Cc1ccc(OCCN2CCN(C)CC2)c(C(O)c2ccccc2)c1 (stereo not shown) [compound 41, (5-methyl-2-(2-(4-methylpiperazin-1-yl)ethoxy)phenyl)(phenyl)methanol]	1000 to 35000
Cc1cc(C)c(OCC(C)N2CCOCC2)c(Cc2c(F)cccc2F)c1 (stereo not shown) [compound 143, 4-(1-(2-(2,6-difluorobenzyl)-4,6-dimethylphenoxy)propan-2-yl)morpholine]	50 to 300

SMILES	EC50 [nM]
Cc1ccc(OCCN2CC[S+]([O-])CC2)c(Cc2ccccc2)c1 [compound 160, 4-(2-(2-benzyl-4-methylphenoxy)ethyl)thiomorpholine 1-oxide]	1000 to 35000
CN1CCN(CC2CCc3cccc(Cc4ccccc4)c3O2)CC1 (stereo not shown) [compound 50, 1-((8-benzylchroman-2-yl)methyl)-4-methylpiperazine]	1000 to 35000
CCOC(=O)c1ccc(Cc2cc(C)cc(C)c2OCCN2CCN(C)CC2)cc1 [compound 164, ethyl 4-(3,5-dimethyl-2-(2-(4-methylpiperazin-1-yl)ethoxy)benzyl)benzoate dihydrochloride]	1000 to 35000
Cc1ccc(Oc2ccccc2C#N)c(CCCN2CCN(C)CC2)c1 [compound 127, 2-(4-methyl-2-(3-(4-methylpiperazin-1-yl)propyl)phenoxy)benzonitrile]	1000 to 35000
Cc1ccc(OCCN2CCC(CO)CC2)c(Cc2ccccc2)c1 [compound 40, (1-(2-(2-benzyl-4-methylphenoxy)ethyl)piperidin-4-yl)methanol]	1000 to 35000
Cc1cc(C)c(OC(C)CN2CCN(C)CC2)c(Cc2ccccc2C#N)c1 (stereo not shown) [compound 115, 2-(3,5-dimethyl-2-((1-(4-methylpiperazin-1-yl)propan-2-yl)oxy)benzyl)benzonitrile]	50 to 300
Cc1cc(C)c(OCCN2CCN(C)CC2)c(Cc2cccc(C#N)c2)c1 [compound 139, 3-(3,5-dimethyl-2-(2-(4-methylpiperazin-1-yl)ethoxy)benzyl)benzonitrile dihydrochloride]	1000 to 35000
Cc1ccc(CCCN2CCN(C)CC2)c(Oc2ccccc2C#N)c1 [compound 133, 2-(5-methyl-2-(3-(4-methylpiperazin-1-yl)propyl)phenoxy)benzonitrile]	50 to 300
Cc1cc(C)c(OCCN2CCN(C)CC2)c(Cc2cccnc2)c1 [compound 64, 1-(2-(2,4-dimethyl-6-(pyridin-3-ylmethyl)phenoxy)ethyl)-4-methylpiperazine]	1000 to 35000
Cc1ccc(OCCN2CCN(C)CC2)c(Cc2cccc(Cl)c2)c1 [compound 59, 1-(2-(2-(3-chlorobenzyl)-4-methylphenoxy)ethyl)-4-methylpiperazine]	1000 to 35000
Cc1cc(C)c(OCCN2CCOCC2)c(Cc2ccccc2Cl)c1 [compound 152, 4-(2-(2-(2-chlorobenzyl)-4,6-dimethylphenoxy)ethyl)morpholine]	50 to 300
Cc1ccc(OCCN2CCN(C)CC2)c(Cc2ccccc2C)c1 [compound 103, 1-methyl-4-(2-(4-methyl-2-(2-methylbenzyl)phenoxy)ethyl)piperazine]	300 to 1000
CC1=C(OCCN2CCN(C)CC2)/C(=C/c2ccccc2)CC(C)C1 (stereo not shown) [compound 43, (E)-1-(2-((6-benzylidene-2,4-dimethylcyclohex-1-en-1-yl)oxy)ethyl)-4-methylpiperazine]	1000 to 35000
Cc1ccc(NCCN2CCOCC2)c(Cc2c(F)cccc2F)c1 [compound 110, 2-(2,6-difluorobenzyl)-4-methyl-N-(2-morpholinoethyl)aniline]	300 to 1000
Cc1ccc(OCCC2CCN(C)CC2)c(Cc2ccccc2C#N)c1 [compound 128, 2-(5-methyl-2-(2-(1-methylpiperidin-4-yl)ethoxy)benzyl)benzonitrile]	1000 to 35000
C=C(c1ccccc1)c1cc(C)ccc1OCCN1CCN(C)CC1 [compound 102, 1-methyl-4-(2-(4-methyl-2-(1-phenylvinyl)phenoxy)ethyl)piperazine]	300 to 1000
Cc1cc(C)c(OCCN2CCN(C)CC2)c(Cc2ccccc2F)c1 [compound 56, 1-(2-(2-(2-fluorobenzyl)-4,6-dimethylphenoxy)ethyl)-4-methylpiperazine]	50 to 300
Cc1ccc(OCCN2CCC(O)CC2)c(Cc2ccccc2)c1 [compound 89, 1-(2-(2-benzyl-4-methylphenoxy)ethyl)piperidin-4-ol]	1000 to 35000
Cc1ccc(OCCN2CCN(C)CC2)c(Cc2ccccc2Cl)c1 [compound 55, 1-(2-(2-(2-chlorobenzyl)-4-methylphenoxy)ethyl)-4-methylpiperazine]	50 to 300
Cc1cccc(Cc2cc(C)ccc2OCCN2CCN(C)CC2)c1 [compound 104, 1-methyl-4-(2-(4-methyl-2-(3-methylbenzyl)phenoxy)ethyl)piperazine]	1000 to 35000
Cc1cc(C)c(OCCN2CCOCC2)c(Cc2c(Br)cccc2C#N)c1 [compound 141, 3-bromo-2-(3,5-dimethyl-2-(2-morpholinoethoxy)benzyl)benzonitrile]	300 to 1000

— patent US20230098332A1, “HETEROCYCLIC DERIVATIVES AS TRMP8 ANTAGONISTS” (Givaudan SA, priority 2020, published 2023)
